Laboratory results: publication PMC11432405, “Development of Novel Alaninamide Derivatives with Anticonvulsant Activity and Favorable Safety Profiles in Animal Models” (International Journal of Molecular Sciences, 2024)
Read-outs that look alike come from different tables or passages of the source.

Experiments:
[1] = test system: maximal electroshock (MES) seizures; assay: maximal electroshock seizure (MES) test; assay type: in vivo, mice; conditions: for responders at 100 mg/kg / ED50: Mus musculus, ip; for responders at 100 mg/kg / ED50 / protection (efficacy) in the MES screening / MES test: number of mice protected / number of mice tested / ED50 MES: mice i.p.; for ED50 / ED50 MES: TPE 0.5 h, 95% confidence interval in parentheses; for PI (TD50/ED50) MES: TD50 rotarod / ED50 MES
Source text: Epilepsy is a multifaceted disorder with often unclear etiology, making it challenging to pinpoint a specific receptor or transporter as the definitive target. Consequently, the discovery of ASMs deviates from the traditional drug development pathway, which typically involves designing a new molecule, docking it with a specific biological target, and performing chemical synthesis, followed by in vitro assays. Instead, numerous animal seizure models, which mirror various types of human epileptic seizures, are initially employed in the process of new ASM discovery. This approach has been instrumental in the identification and introduction into clinical practice of all currently used ASMs and continues to be a cornerstone in the preclinical development of new anticonvulsants. The primary justification for prioritizing in vivo screening over in vitro binding and functional studies is the complex and often not fully elucidated mechanisms of action of known ASMs. This approach also facilitates the discovery of compounds with novel, previously undefined pharmacodynamic properties. In light of this, we evaluated all compounds obtained in the current studies using the MES test, which remains one of the most valuable preclinical screening models for tonic-clonic seizures, as well as partial convulsions with or without secondary generalization in humans. This test allows for a comprehensive assessment of the anticonvulsant efficacy of new ASM candidates and is considered highly relevant for predicting their therapeutic efficacy in human epilepsy. The MES test was carried out in mice following the intraperitoneal (i.p.) administration of a screening dose of 100 mg/kg in a group consisting of four animals. The efficacy of the compounds synthesized was evaluated at 0.5 h pretreatment time.
Fresh solutions were prepared daily for each experimentation session.
Each group consisted of six animals.

[2] = rotarod test (acute neurological toxicity, motor coordination); assay type: in vivo; conditions: male, CD-1 (albino Swiss), mouse, in vivo, ip, mice i.p.
Procedure: (§2) The protective indexes (PIs) were then calculated as the ratio of TD50 to ED50 (PI = TD50/ED50), providing an assessment of the therapeutic window for each compound.

HepG2 cells = assay: hepatocytotoxicity MTT viability assay; assay type: cell-based, human; conditions: 24 h
Procedure: (§1) To evaluate selected compounds’ hepatocytotoxicity and neurocytotoxicity, a human hepatocellular carcinoma cell line, HepG2 (ATCC® HB-8065™), and a human neuroblastoma cell line, SH-SY5Y (ATCC®, CRL-2266™), were used. Both cell lines were cultured in standard culture conditions (5% CO2, 37 °C, 95% humidity) using Dulbecco′s Modified Eagle′s—Medium (DMEM; Gibco, Thermo Scientific, Waltham, MA, USA) supplemented with 10% (vol/vol) fetal bovine serum (FBS; Gibco, Thermo Scientific, Waltham, MA, USA) and an antibiotic mixture (Penicillin, Streptomycin, Amphotericin B; Gibco, Thermo Scientific, Waltham, MA, USA). Cells were cultured with compounds 5, […], or 39 (1–50 µM) for 24 h and then an MTT (3-(4,5-dimethylthiazol-2-yl)-2,5diphenyltetrazolium bromide, Sigma-Aldrich, St. Louis, MO, USA) viability assay was performed. The formazan crystals were dissolved in DMSO (Sigma-Aldrich, St. Louis, MO, USA), and the absorbance at 570 nm was measured using a microplate reader (SpectraMax® iD3, Molecular Devices, San Jose, CA, USA). The experiment was performed three times in duplicate. Each bar represents the mean (±SEM) percentage of viable cells in comparison to the control (defined as 100% and represented by untreated cells).
Figure 2 The viability of HepG2 cells incubated in the presence of 5, 17, and 39. HepG2 cells were exposed to growing concentrations (1–50 µM) of tested compounds for 24 h. Cell viability was measured using an MTT assay. Bars represent mean percent of cell viability normalized to non-treated cells (100%) ± SEM. The doxorubicin was tested as a positive control.

SH-SY5Y cells = assay: neurocytotoxicity MTT viability assay; assay type: cell-based, human; conditions: 1–50 µM, 24 h
Procedure: as §1
Figure 3 The viability of SH-SY5Y cells incubated in the presence of compounds 5, 17, and 39. […] Cell viability was measured using an MTT assay. […]

human recombinant MAO-B = biological target: T1, human recombinant MAO-B (Homo sapiens, UniProt P27338); assay: fluorometric monoamine oxidase B inhibition assay; assay type: biochemical; conditions: for inhibition at 1 µM: read-out: % inhibition MAO-B (1 µM), mean of two independent experiments; for % inhibition MAO-B (1 µM): mean of two independent experiments
T1 construct: purchased Sigma Aldrich
T1 sequence (P27338 1-520): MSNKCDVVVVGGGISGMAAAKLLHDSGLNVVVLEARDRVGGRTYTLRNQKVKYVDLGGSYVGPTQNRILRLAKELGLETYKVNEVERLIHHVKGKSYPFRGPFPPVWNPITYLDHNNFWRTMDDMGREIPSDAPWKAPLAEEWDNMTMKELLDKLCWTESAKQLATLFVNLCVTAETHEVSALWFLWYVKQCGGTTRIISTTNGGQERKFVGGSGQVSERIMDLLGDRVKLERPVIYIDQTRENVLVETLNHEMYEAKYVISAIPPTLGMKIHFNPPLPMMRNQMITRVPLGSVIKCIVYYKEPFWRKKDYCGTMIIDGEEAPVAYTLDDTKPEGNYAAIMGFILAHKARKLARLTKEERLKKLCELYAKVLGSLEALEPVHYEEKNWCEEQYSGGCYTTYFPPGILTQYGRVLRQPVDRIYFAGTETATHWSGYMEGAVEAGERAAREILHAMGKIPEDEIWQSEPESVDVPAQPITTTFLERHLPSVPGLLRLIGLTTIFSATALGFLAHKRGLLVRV

6 Hz (32 mA) seizures [3] = assay: 6 Hz (32 mA) psychomotor seizure model; conditions: for ED50 / responders at 100 mg/kg: Mus musculus, ip; for ED50 / responders at 100 mg/kg / protection (efficacy) in the 6 Hz (32 mA) screening: 0.5 h; for ED50: read-out: ED50 6 Hz (32 mA), mice i.p., TPE 0.5 h, 95% confidence interval in parentheses; for responders at 100 mg/kg: read-out: protection (efficacy) in the 6 Hz (32 mA) screening; for PI (TD50/ED50) 6 Hz: TD50 rotarod / ED50 6 Hz (32 mA); for protection (efficacy) in the 6 Hz (32 mA) screening / ED50 6 Hz (32 mA) / 6 Hz (32 mA) test: number of mice protected / number of mice tested: mice i.p.; for protection (efficacy) in the 6 Hz (32 mA) screening: 100 mg/kg, four mice; for ED50 6 Hz (32 mA): TPE 0.5 h, 95% confidence interval in parentheses; for 6 Hz (32 mA) test: number of mice protected / number of mice tested: dose of 100 mg/kg, pretreatment time 0.5 h;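 for all read-outs here: adult male albino Swiss CD-1 mice, each used once, with compounds suspended in 1% Tween 80 in water as vehicle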
motor coordination [4] = conditions: cited from earlier work
motor coordination [5] = assay: rotarod test (acute neurological toxicity, motor coordination); assay type: in vivo; conditions: mice i.p., 0.5 h
Procedure: as §2

[6] = test system: maximal electroshock (MES) seizures; conditions: TD50 rotarod / ED50 MES; cited from earlier work
6 Hz (32 mA) seizures [7] = conditions: TD50 rotarod / ED50 6 Hz (32 mA); cited from earlier work
6 Hz (44 mA) seizures = conditions: TD50 rotarod / ED50 6 Hz (44 mA); cited from earlier work
[8] = dose of 100 mg/kg, pretreatment time 0.5 h, read-out: MES test: number of mice protected / number of mice tested (converted)
[9] = dose of 100 mg/kg, pretreatment time 0.5 h

## CC(C(=O)NCc1ccc(OCc2ccc(OC(F)(F)F)cc2)cc1)N1C(=O)CCC1=O (stereo not shown) [Compound 17, 2-(2,5-dioxopyrrolidin-1-yl)-N-(4-((4-(trifluoromethoxy)benzyl)oxy)benzyl)propanamide]
[1]; 100 mg/kg, 0.5 h, four mice, read-out: protection (efficacy) in the MES screening
  responders at 100 mg/kg: 100%
[1]
  ED50: 21 mg/kg
[1]; [8]
  responders at 100 mg/kg: 100%
[2]
  TD50 at 0.5 h: > 300 mg/kg
HepG2 cells; 1–50 µM
  toxic effect on HepG2 cell viability (MTT): do not exhibit toxic effects
SH-SY5Y cells
  toxic effect on SH-SY5Y cell viability (MTT): do not exhibit toxic effects
Human recombinant MAO-B
  inhibition at 1 µM: 0%
other
  melting point: 104.1 to 104.8 °C
6 Hz (32 mA) seizures [3]
  ED50: 77 mg/kg
  responders at 100 mg/kg: 75%

## CC[C@@H](C(N)=O)N1CCCC1=O [LEV, levetiracetam]
Motor coordination [4]; mice i.p., Table 2
  TD50 (rotarod test): >500 mg/kg
Motor coordination [4]; mice i.p., Table 3
  TD50 (rotarod test): >500 mg/kg

## CC(C(=O)NCc1ccc(OCc2ccccc2Cl)cc1)N1C(=O)CCC1=O (stereo not shown) [Compound 9, N-(4-((2-chlorobenzyl)oxy)benzyl)-2-(2,5-dioxopyrrolidin-1-yl)propanamide]
[1]
  PI (TD50/ED50) MES: > 6.3
[1]; 100 mg/kg, 0.5 h, four mice
  protection (efficacy) in the MES screening: 100%
[1]; [9]
  MES test: number of mice protected / number of mice tested: 4/4
Motor coordination [5]
  TD50 (rotarod test): >300 mg/kg
Human recombinant MAO-B
  % inhibition MAO-B (1 µM): 0%
6 Hz (32 mA) seizures [3]
  PI (TD50/ED50) 6 Hz: > 5.2
  protection (efficacy) in the 6 Hz (32 mA) screening: 75%
  ED50 6 Hz (32 mA): 57.69 (33.98–97.94) mg/kg
  6 Hz (32 mA) test: number of mice protected / number of mice tested: 3/4

## CC(C(=O)NCc1ccc(OCc2ccc(OC(F)(F)F)cc2)cc1)N1CCCC1=O (stereo not shown) [Compound 39, 2-(2-oxopyrrolidin-1-yl)-N-(4-((4-(trifluoromethoxy)benzyl)oxy)benzyl)propanamide]
[1]
  ED50: 36.2 mg/kg
  PI (TD50/ED50) MES: < 8.3
[1]; [8]
  responders at 100 mg/kg: 100%
[2]
  TD50 at 0.5 h: < 300 mg/kg
HepG2 cells; 50 µM, cell line not specified in the sentence (Figures 2 and 3)
  cell viability at higher concentration (MTT): statistically significant decrease in cell viability
Human recombinant MAO-B
  inhibition at 1 µM: 0%
other
  melting point: 103.4 to 103.9 °C
6 Hz (32 mA) seizures [3]
  ED50: 37.3 mg/kg
  responders at 100 mg/kg: 100%
  PI (TD50/ED50) 6 Hz: < 8.0

## C[C@H](C(=O)NCc1ccccc1)N1C(=O)CCC1=O [(R)-AS-1, (R)-N-Benzyl-2-(2,5-Dioxopyrrolidin-1-Yl)Propanamide]
[6]
  PI (TD50/ED50) MES: > 7.5
6 Hz (32 mA) seizures [7]
  PI (TD50/ED50) 6 Hz: > 32.0
6 Hz (44 mA) seizures
  PI (TD50/ED50) 6 Hz (44 mA): >12.0
Motor coordination [4]; mouse, in vivo, ip
  TD50 (rotarod test): >500 mg/kg

## CC(C(=O)NCc1ccc(OCc2cccc(Cl)c2)cc1)N1C(=O)CCC1=O (stereo not shown) [Compound 10, N-(4-((3-chlorobenzyl)oxy)benzyl)-2-(2,5-dioxopyrrolidin-1-yl)propanamide]
[1]
  PI (TD50/ED50) MES: > 5.9
  ED50 MES: 50.87 (45.29–57.13) mg/kg
[1]; 100 mg/kg, 0.5 h, four mice
  protection (efficacy) in the MES screening: 100%
[1]; [9]
  MES test: number of mice protected / number of mice tested: 4/4
Motor coordination [5]
  TD50 (rotarod test): >300 mg/kg
Human recombinant MAO-B
  % inhibition MAO-B (1 µM): 0%
6 Hz (32 mA) seizures [3]
  PI (TD50/ED50) 6 Hz: > 5.0
  protection (efficacy) in the 6 Hz (32 mA) screening: 75%
  ED50 6 Hz (32 mA): 59.31 (45.54–73.08) mg/kg
  6 Hz (32 mA) test: number of mice protected / number of mice tested: 3/4

## CC(C(=O)NCc1ccc(OCc2cccc(F)c2)cc1)N1C(=O)CCC1=O (stereo not shown) [Compound 7, 2-(2,5-dioxopyrrolidin-1-yl)-N-(4-((3-fluorobenzyl)oxy)benzyl)propanamide]
[1]
  PI (TD50/ED50) MES: > 3.8
  ED50 MES: 78.30 (65.82–93.13) mg/kg
[1]; 100 mg/kg, 0.5 h, four mice
  protection (efficacy) in the MES screening: ≤ 25%
[1]; [9]
  MES test: number of mice protected / number of mice tested: 1/4
Motor coordination [5]
  TD50 (rotarod test): >300 mg/kg
Human recombinant MAO-B
  % inhibition MAO-B (1 µM): 0%
6 Hz (32 mA) seizures [3]
  PI (TD50/ED50) 6 Hz: > 4.2
  protection (efficacy) in the 6 Hz (32 mA) screening: 100%
  ED50 6 Hz (32 mA): 71.73 (66.6–77.23) mg/kg
  6 Hz (32 mA) test: number of mice protected / number of mice tested: 4/4
